Assay results reported in US10723727B2, “Tubulysin analogs and methods for their preparation” (priority 2016, dated 2020).
Like-named read-outs stand apart in the source and are kept apart here.

Experiments:
[1] = target: T1, tubulin/RB3-stathmin-like-domain (RB3-SLD-tdm) complex (Sus scrofa, UniProt P02550+P02554); assay: Tubulin Peptide-Binding Site Competition Assay (fluorescence polarization); design: species or system Porcine
T1 construct: purchased Cytoskeleton, Inc. T240; host or cells: RB3-SLD was made in house in E. coli
Procedure: Tubulin Peptide-Binding Site Competition Assay
Tubulin binding potency was measured for payloads or cysteine-capped linker-payloads using a fluorescence polarization (FP) competition assay. The binding of a BODIPY-labeled vinca peptide probe (# B31) to a tubulin/RB3-stathmin-like-domain (RB3-SLD-tdm) complex generates a high FP signal, which can be decreased when mixing with test compounds that compete with the FP probe. The order of addition for the reagents in the FP assay was designed to pre-mix the FP probe with various concentrations of the test compound before mixing them with the tubulin/RB3-SLD-dm complex. The final assay concentrations of the probe, tubulin and RB3-SLD-dm were 3, 6, and 100 nM, respectively. IC50 for each test compound is obtained by fitting the dose-dependent FP signal change using GraphPad Prism version 5 software (La Jolla, Calif.) while Ki is converted from the IC50 using the equations described previously (Nikolovska-Coleska et al., 2004). The FP signals were measured on an Infinite M1000 (Tecan, San Jose, Calif.) using ProxiPlate-384 F Plus, Black (Perkin-Elmer, Waltham, Mass., Cat #6008260) with 15 μL of solution per well. Sample dilution and mixing were done using a Beckman Biomek XF (Brea, Calif.). Porcine tubulin was purchased from Cytoskeleton, Inc. (Denver, Colo., Cat #T240) and RB3-SLD was expressed in E. coli. and purified on Q and then Superdex75 columns. The FP assay test for each compound was run in duplicates by mixing 6 μL of solution 1 containing 2.5× test compound (2.5× serial dilution from 7.8 μM maximum concentration, 11 total concentrations) and 7.5 nM of the FP probe in 80 mM PIPES, pH 7.0, 0.02% Tween 20, 2 mM MgCl2, 1 mM EGTA and 3% DMSO with 9 μL of solution 2 containing […] porcine tubulin and 167 nM of RB3-SLD-dm peptide ([…]-[…]) on ProxiPlate-384 micro-plates.

[2] = test system: N87 (gastric cancer) cells; assay: In vitro cell assay (MTS cell viability), N87; type: cell-based; settings: 96 h, free compounds; 96 hours after treatment
Procedure: (§1) In Vitro Cell Assay Procedure
(§2) Target expressing (BT474 (breast cancer), N87 (gastric cancer), HCC1954 (breast cancer), MDA-MB-361-DYT2 (breast cancer)) or non-expressing (HT-29) cells were seeded in 96-well cell culture plates for 24 hours before treatment. Cells were treated with 3-fold serially diluted antibody-drug conjugates or free compounds (i. e. no antibody conjugated to the drug) in duplicate at 10 concentrations. Cell viability was determined by CellTiter 96® AQueous One Solution Cell Proliferation MTS Assay (Promega, Madison Wis.) 96 hours after treatment. Relative cell viability was determined as percentage of untreated control. IC50 values were calculated using a four parameter logistic model #203 with XLfit v4. 2 (IDBS, Guildford, Surry, UK).

[3] = test system: MDA-MB-361-DYT2 (breast cancer) cells; assay: In vitro cell assay (MTS cell viability), MDA-MB-361-DYT2; type: cell-based; settings: 96 h, free compounds; 96 hours after treatment
Procedure: as §1, §2

[4] = FP competition with BODIPY-labeled vinca peptide probe, read after five hours at 22° C., read-out: Tubulin Peptide-Binding Site Competition Assay IC50

Row | Compound | IC50 [1, 4] [nM] | IC50 [2] [nM] | IC50 [3] [nM] | IC50 [1] [nM]
1 | CC[C@H](C)[C@H](NC(=O)[C@H]1CCCCN1C)C(=O)N(C)[C@H](C[C@@H](OC(C)=O)c1nc(C(=O)NCC2OCCc3ccccc32)cs1)C(C)C (stereo partly drawn) [#B38, (1R,3R)-1-{4-[(3,4-dihydro-1H-isochromen-1-ylmethyl)carbamoyl]-1,3-thiazol-2-yl}-4-methyl-3-[methyl(N-{[(2R)-1-methylpiperidin-2-yl]carbonyl}-L-isoleucyl)amino]pentyl acetate] | 4.8 | 3.06 | 0.925 | 
2 | CC[C@H](C)[C@H](NC(=O)[C@H]1CCCCN1C)C(=O)N(C)[C@H](C[C@@H](OC(C)=O)c1nc(C(=O)N[C@@H](Cc2ccccc2)CC(C)P(=O)(O)O)cs1)C(C)C (stereo partly drawn) [#B3, N-[(1R,3R)-1-(acetyloxy)-4-methyl-1-(4-{[(2S)-1-phenyl-4-phosphonopentan-2-yl]carbamoyl}-1,3-thiazol-2-yl)pentan-3-yl]-N-methyl-N˜2˜-{[(2R)-1-methylpiperidin-2-yl]carbonyl}-L-isoleucinamide] |  | 14.8 | 9.4 | 4.4
3 | CC[C@H](C)[C@H](NC(=O)[C@]1(C)CCCN1C)C(=O)N(C)[C@H](C[C@@H](OC(C)=O)c1nc(C(=O)N[C@@H](Cc2ccccc2)C[C@H](C)C(=O)OC)cs1)C(C)C [#B2, 1,2-dimethyl-L-prolyl-N-[(1R,3R)-1-(acetyloxy)-1-(4-{[(2R,4S)-5-methoxy-4-methyl-5-oxo-1-phenylpentan-2-yl]carbamoyl}-1,3-thiazol-2-yl)-4-methylpentan-3-yl]-N-methyl-L-isoleucinamide] | 92.2 | 11.8 | 5.54 | 
4 | CC[C@H](C)[C@H](NC(=O)[C@@]1(C)CCCN1)C(=O)N(C)[C@H](C[C@@H](OC(C)=O)c1nc(C(=O)N[C@@H](Cc2ccccc2)C[C@H](C)C(=O)OC)cs1)C(C)C [#B6, 2-methyl-D-prolyl-N-[(1R,3R)-1-(acetyloxy)-1-(4-{[(2R,4S)-5-methoxy-4-methyl-5-oxo-1-phenylpentan-2-yl]carbamoyl}-1,3-thiazol-2-yl)-4-methylpentan-3-yl]-N-methyl-L-isoleucinamide] | 119 | 29.3 | 18.6 | 
5 | CC[C@H](C)[C@H](NC(=O)[C@H]1CCCCN1C)C(=O)N(C)[C@H](C[C@@H](OC(C)=O)c1nc(C(=O)N[C@H](CNS(C)(=O)=O)Cc2ccccc2)cs1)C(C)C [#B36, (1R,3R)-4-methyl-3-[methyl(N-{[(2R)-1-methylpiperidin-2-yl]carbonyl}-L-isoleucyl)amino]-1-[4-({(2S)-1-[(methylsulfonyl)amino]-3-phenylpropan-2-yl}carbamoyl)-1,3-thiazol-2-yl]pentyl acetate] | 1.7 | 0.459 | 0.255 | 
6 | CCOC(=O)c1ncoc1[C@H](Cc1ccccc1)NC(=O)c1csc([C@@H](C[C@H](C(C)C)N(C)C(=O)[C@@H](NC(=O)[C@H]2CCCCN2C)[C@@H](C)CC)OC(C)=O)n1 [#B39, ethyl 5-[(1S)-1-{[(2-{(1R,3R)-1-(acetyloxy)-4-methyl-3-[methyl(N-{[(2R)-1-methylpiperidin-2-yl]carbonyl}-L-isoleucyl)amino]pentyl}-1,3-thiazol-4-yl)carbonyl]amino}-2-phenylethyl]-1,3-oxazole-4-carboxylate] | 4.7 | 1.39 | 0.602 | 
7 | CC[C@H](C)[C@H](NC(=O)[C@@]1(C)CCCN1C)C(=O)N(C)[C@H](C[C@@H](OC(C)=O)c1nc(C(=O)NCCn2nc(C)cc2C)cs1)C(C)C [#B42, 1,2-dimethyl-D-prolyl-N-[(1R,3R)-1-(acetyloxy)-1-(4-{[2-(3,5-dimethyl-1H-pyrazol-1-yl)ethyl]carbamoyl}-1,3-thiazol-2-yl)-4-methylpentan-3-yl]-N-methyl-L-isoleucinamide] | 27.6 |  |  | 
8 | CC[C@H](C)[C@H](NC(=O)[C@@]1(C)CCCN1C)C(=O)N(C)[C@H](C[C@@H](OC(C)=O)c1nc(C(=O)NCCN2CCCC2=O)cs1)C(C)C [#B73, 1,2-dimethyl-D-prolyl-N-[(1R,3R)-1-(acetyloxy)-4-methyl-1-(4-{[2-(2-oxopyrrolidin-1-yl)ethyl]carbamoyl}-1,3-thiazol-2-yl)pentan-3-yl]-N-methyl-L-isoleucinamide] | 85.5 |  |  | 
9 | CC[C@H](C)[C@H](NC(=O)[C@@]1(C)CCCN1C)C(=O)N(C)[C@H](C[C@@H](OC(C)=O)c1nc(C(=O)NCC2(c3ccccc3)CCN(C)CC2)cs1)C(C)C [#B65, 1,2-dimethyl-D-prolyl-N-[(1R,3R)-1-(acetyloxy)-4-methyl-1-(4-{[(1-methyl-4-phenylpiperidin-4-yl)methyl]carbamoyl}-1,3-thiazol-2-yl)pentan-3-yl]-N-methyl-L-isoleucinamide] | 33.8 |  |  | 
10 | CC[C@H](C)[C@H](NC(=O)[C@@]1(C)CCCN1C)C(=O)N(C)[C@H](C[C@@H](OC(C)=O)c1nc(C(=O)NCC2OCCc3ccccc32)cs1)C(C)C (stereo partly drawn) [#B69, 1,2-dimethyl-D-prolyl-N-[(1R,3R)-1-(acetyloxy)-1-{4-[(3,4-dihydro-1H-isochromen-1-ylmethyl)carbamoyl]-1,3-thiazol-2-yl}-4-methylpentan-3-yl}-N-methyl-L-isoleucinamide] | 29.9 |  |  | 
11 | CC[C@H](C)[C@H](NC(=O)[C@@]1(C)CCCN1C)C(=O)N(C)[C@H](C[C@@H](OC(C)=O)c1nc(C(=O)NCCc2cnn(C)c2)cs1)C(C)C [#B77, 1,2-dimethyl-D-prolyl-N-[(1R,3R)-1-(acetyloxy)-4-methyl-1-(4-{[2-(1-methyl-1H-pyrazol-4-yl)ethyl]carbamoyl}-1,3-thiazol-2-yl)pentan-3-yl]-N-methyl-L-isoleucinamide] | 249 |  |  | 
12 | CC[C@H](C)[C@H](NC(=O)[C@@]1(C)CCCN1C)C(=O)N(C)[C@H](C[C@@H](OC(C)=O)c1nc(C(=O)NCCc2ccc(-c3ccccc3)cc2)cs1)C(C)C [#B45, 1,2-dimethyl-D-prolyl-N-[(1R,3R)-1-(acetyloxy)-1-(4-{[2-(biphenyl-4-yl)ethyl]carbamoyl}-1,3-thiazol-2-yl)-4-methylpentan-3-yl]-N-methyl-L-isoleucinamide] | 436 |  |  | 
13 | CC[C@H](C)[C@H](NC(=O)[C@@]1(C)CCCN1C)C(=O)N(C)[C@H](C[C@@H](OC(C)=O)c1nc(C(=O)NCCN2Cc3ccccc3C2=O)cs1)C(C)C [#B44, 1,2-dimethyl-D-prolyl-N-[(1R,3R)-1-(acetyloxy)-4-methyl-1-(4-{[2-(1-oxo-1,3-dihydro-2H-isoindol-2-yl)ethyl]carbamoyl}-1,3-thiazol-2-yl)pentan-3-yl]-N-methyl-L-isoleucinamide] | 47.6 |  |  | 
14 | CC[C@H](C)[C@H](NC(=O)[C@@]1(C)CCCN1C)C(=O)N(C)[C@H](C[C@@H](OC(C)=O)c1nc(C(=O)NC2CCc3ccccc3C2)cs1)C(C)C (stereo partly drawn) [#B57, 1,2-dimethyl-D-prolyl-N-{(1R,3R)-1-(acetyloxy)-4-methyl-1-[4-(1,2,3,4-tetrhydronaphthalen-2-ylcarbamoyl)-1,3-thiazol-2-yl)pentan-3-yl}-N-methyl-L-isoleucinamide] | 78.8 |  |  | 
15 | CC[C@H](C)[C@H](NC(=O)[C@@]1(C)CCCN1C)C(=O)N(C)[C@H](C[C@@H](OC(C)=O)c1nc(C(=O)NCCN2CCOC2=O)cs1)C(C)C [#B64, 1,2-dimethyl-D-prolyl-N-[(1R,3R)-1-(acetyloxy)-4-methyl-1-(4-{[2-(2-oxo-1,3-oxazolidin-3-yl)ethyl]carbamoyl}-1,3-thiazol-2-yl)pentan-3-yl]-N-methyl-L-isoleucinamide] | 73 |  |  | 
16 | CC[C@H](C)[C@H](NC(=O)[C@@]1(C)CCCN1C)C(=O)N(C)[C@H](C[C@@H](OC(C)=O)c1nc(C(=O)NC(Cc2ccccc2)c2ccccc2)cs1)C(C)C (stereo partly drawn) [#B74, 1,2-dimethyl-D-prolyl-N-[(1R,3R)-1-(acetyloxy)-1-{4-[(1,2-diphenylethyl)carbamoyl]-1,3-thiazol-2-yl}-4-methylpentan-3-yl]-N-methyl-L-isoleucinamide] | 89.3 |  |  | 
